Key:
Format in all cases: cell-based
Settings in all cases: after 10, 20, 40 and 60 minutes at all dilutions 1:100, 1:200, 1:400, 1:800
Staphylococcus aureus = experiment: Antimicrobial screening by agar dilution, Staphylococcus aureus
Procedure: (§1) The antimicrobial properties of the 4,5-bis(4-bromophenyl)-1-hexyl-2-(4-hydroxy-3-dimethoxyphenyl)-1H-imidazole was studied by the method of agar dilution. Test solutions of each compound was prepared in concentration of 1% using dimethylformamide as a solvent then they were diluted in physiological solution to obtain the final experimental dilutions 1: 100, 1:200, 1:400, 1:800. The effect of these substances were compared with furacillin in a controlled study. The testing microbes used were gram positive bacteria Staphylococcus aureus, gram negative bacteria Pseudomonas aeruginosa and Escherichia coli and Candida albicans fungi were taken. The experiments used for this survey were meat-pentonlu agar (EPA) for cultivation of bacteria and Saburo environment for fungi. Each experiment used 1 ml of test solution on each plate 500 min. Add 2 drops of emulsified with microbes feel. All experimental samples were taken from the agar after 10, 20, 40, 60 minutes in the environment on the basis of Patrk planted. Bacteria were cultivated at a temperature of 37° C. for 1 day and the mushroom was kept in a thermostat for […] at a temperature of 28° C. Then results were checked.

Pseudomonas aeruginosa = experiment: Antimicrobial screening by agar dilution, Pseudomonas aeruginosa
Procedure: as §1

Candida albicans = experiment: Antimicrobial (antifungal) screening by agar dilution, Candida albicans
Procedure: as §1

Escherichia coli = experiment: Antimicrobial screening by agar dilution, Escherichia coli
Procedure: as §1

Measured: inhibition activity (summary in words)

CCCCCCn1c(-c2ccc(O)c(OC)c2)nc(-c2ccc(Br)cc2)c1-c1ccc(Br)cc1 [4,5-bis(4-bromophenyl)-1-hexyl-2-(4-hydroxy-3-dimethoxyphenyl)-1H-imidazole]
highest inhibition activity: all assays above

From patent publication US11952348B1, “4,5-bis(4-bromophenyl)-1-hexyl-2-(4-hydroxy-3-dimethoxyphenyl)-1H-imidazole as an antimicrobial compound” (KING FAISAL UNIVERSITY, priority 2023, dated 2024)
